Experimental data published in ChEMBL document CHEMBL1201862, “PubChem BioAssay data set” (2004).
Calls of active or inactive are those of the source.

Assays:
[1] = molecular target: E3 ubiquitin-protein ligase Mdm2 (Homo sapiens, UniProt Q00987); assay: enhancers of MDM2-luciferase reporter signal, concentration-effect titration, project on inhibitors of MDM2 ubiquitin ligase, cellular assay, luminescent readout, 384-well plate format (AID 1394); assay type: functional;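 also: MDM2 E3 inhibitors raise luminescence so EC50 is for signal enhancement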
Sequence of E3 ubiquitin-protein ligase Mdm2 (Q00987 whole entry): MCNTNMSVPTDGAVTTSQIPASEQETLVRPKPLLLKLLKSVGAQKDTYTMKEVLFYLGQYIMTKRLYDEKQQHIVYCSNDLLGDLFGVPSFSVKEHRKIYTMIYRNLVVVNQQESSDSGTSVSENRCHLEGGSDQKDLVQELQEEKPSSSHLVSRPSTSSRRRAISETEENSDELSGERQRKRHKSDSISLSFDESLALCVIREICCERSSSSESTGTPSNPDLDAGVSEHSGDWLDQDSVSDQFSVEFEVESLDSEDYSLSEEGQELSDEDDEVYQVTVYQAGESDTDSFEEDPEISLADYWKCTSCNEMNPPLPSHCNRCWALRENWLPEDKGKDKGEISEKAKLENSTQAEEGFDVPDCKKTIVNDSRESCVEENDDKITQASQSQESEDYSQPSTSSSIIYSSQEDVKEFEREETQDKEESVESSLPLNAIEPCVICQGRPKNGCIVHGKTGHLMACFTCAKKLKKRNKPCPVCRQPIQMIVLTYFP

[2] = A cytotoxicity screen of small molecule inhibitors of the PhoP region in Salmonella typhi identified in the primary screen. [Related pubchem assays: 1850, 1864, 1985 ]; assay type: functional
[3] = inhibitors of Vif binding to APOBEC3G peptide, primary screen, biochemical, TR-FRET, GST-Vif 1-94, biotin-A3G peptide, dose response retest (AID 1117319); assay type: functional;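 also: TR-FRET signal of purified GST-Vif binding a biotinylated A3G peptide; inhibitors lower the FRET signal by blocking Vif and A3G binding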
Leucine aminopeptidase = molecular target: T1, Leucine aminopeptidase (Plasmodium falciparum 3D7, UniProt Q8IL11); assay: P. falciparum M17LAP inhibitors, primary screen, biochemical, fluorogenic H-Leu-NHMec substrate, 1536-well (AID 1619); assay type: functional
T1 sequence (Q8IL11 whole entry): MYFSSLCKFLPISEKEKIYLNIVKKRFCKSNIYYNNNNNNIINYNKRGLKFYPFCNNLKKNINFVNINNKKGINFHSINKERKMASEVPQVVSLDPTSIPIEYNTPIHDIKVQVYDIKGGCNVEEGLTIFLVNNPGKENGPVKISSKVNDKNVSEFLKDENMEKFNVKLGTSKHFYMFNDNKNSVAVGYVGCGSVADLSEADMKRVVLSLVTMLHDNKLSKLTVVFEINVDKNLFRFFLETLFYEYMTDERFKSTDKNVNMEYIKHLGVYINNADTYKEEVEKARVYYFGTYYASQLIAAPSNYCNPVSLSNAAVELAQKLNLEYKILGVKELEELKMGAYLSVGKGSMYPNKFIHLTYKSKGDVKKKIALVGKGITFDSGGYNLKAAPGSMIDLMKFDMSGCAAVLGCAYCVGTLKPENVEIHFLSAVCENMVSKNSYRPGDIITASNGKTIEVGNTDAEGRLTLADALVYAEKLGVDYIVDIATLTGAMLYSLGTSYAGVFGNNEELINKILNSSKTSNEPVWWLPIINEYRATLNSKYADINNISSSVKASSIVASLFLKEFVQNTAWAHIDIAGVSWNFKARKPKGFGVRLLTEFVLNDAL

Aspartyl aminopeptidase = molecular target: T2, Aspartyl aminopeptidase (Plasmodium falciparum 3D7, UniProt Q8I2J3); assay: Counterscreen for inhibitors of M1 and M17 aminopeptidases: QFRET-based biochemical high throughput dose response assay for inhibitors of the Plasmodium falciparum M18 Aspartyl Aminopeptidase (PFM18AAP). [Related PubChem assays: 1619 (Screening assay (M17LAP inhibitors).), 1445 (Screening assay (M1AAP inhibitors).)]
T2 sequence (Q8I2J3 whole entry): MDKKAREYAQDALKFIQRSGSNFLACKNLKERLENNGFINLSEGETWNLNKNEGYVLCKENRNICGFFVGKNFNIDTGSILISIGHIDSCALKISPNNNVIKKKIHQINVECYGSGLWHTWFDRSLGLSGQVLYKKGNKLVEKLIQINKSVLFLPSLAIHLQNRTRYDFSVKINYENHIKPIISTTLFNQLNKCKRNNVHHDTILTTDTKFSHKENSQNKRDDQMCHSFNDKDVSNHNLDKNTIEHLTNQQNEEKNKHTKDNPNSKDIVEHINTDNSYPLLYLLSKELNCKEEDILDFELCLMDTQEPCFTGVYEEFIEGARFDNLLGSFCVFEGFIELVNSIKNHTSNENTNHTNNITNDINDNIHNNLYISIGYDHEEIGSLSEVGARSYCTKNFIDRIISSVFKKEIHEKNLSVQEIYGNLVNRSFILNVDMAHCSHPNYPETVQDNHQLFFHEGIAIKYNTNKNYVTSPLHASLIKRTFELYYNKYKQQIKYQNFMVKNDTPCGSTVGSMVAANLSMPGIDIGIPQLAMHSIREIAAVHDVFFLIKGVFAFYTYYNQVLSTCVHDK

Procathepsin L = Procathepsin L (Homo sapiens, UniProt P07711); assay: cathepsin L inhibitors, dose response, counter-screen for M1/M17 aminopeptidase inhibitor project, biochemical, QFRET, 1536-well (AID 2214)
Sequence of Procathepsin L (P07711 whole entry): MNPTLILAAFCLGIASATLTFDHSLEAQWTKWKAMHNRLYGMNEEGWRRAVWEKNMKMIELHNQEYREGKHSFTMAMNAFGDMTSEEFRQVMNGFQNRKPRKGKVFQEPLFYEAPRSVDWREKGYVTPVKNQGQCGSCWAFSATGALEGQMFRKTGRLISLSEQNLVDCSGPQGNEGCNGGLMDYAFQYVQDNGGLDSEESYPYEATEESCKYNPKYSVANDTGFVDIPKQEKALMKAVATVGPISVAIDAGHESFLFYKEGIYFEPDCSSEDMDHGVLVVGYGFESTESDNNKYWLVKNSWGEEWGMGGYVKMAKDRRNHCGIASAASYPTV

Protein Tat = molecular target: T3, Protein Tat (Human immunodeficiency virus type 1 group M subtype B (isolate HXB2)(HIV-1), UniProt P04608); assay type: functional;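 also: tat binding to TAR RNA read out by fluorescence polarization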
T3 sequence (P04608 whole entry): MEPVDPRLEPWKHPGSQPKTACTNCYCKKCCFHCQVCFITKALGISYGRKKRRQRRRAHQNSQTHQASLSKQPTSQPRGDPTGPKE

[4] = Concentration-dependent survival of SW480 colon cancer line, luminescence detection with CellTiter-Glo, half-maximal inhibitory concentration (AID 1117338); assay type: functional
[5] = RKO cell viability reduction, dose response, CellTiter-Glo luminescence (AID 1117322); assay type: functional
[6] = cytotoxicity toward HCT116 cells – cell-based, CellTiter-Glo luminescence, IC50, dose response (AID 1117332); assay type: functional; details: HCT-116
[7] = SNU-C1 cell viability reduction, dose response, CellTiter-Glo luminescence (AID 1117323); assay type: functional, cell-based
[8] = cytotoxicity toward Colo320 cells – cell-based, CellTiter-Glo luminescence, IC50, dose response (AID 1117334); assay type: functional; details: COLO 320
[9] = cytotoxicity toward HT-29 cells – cell-based, CellTiter-Glo luminescence, IC50, dose response (AID 1117330); assay type: functional
[10] = CellTiter-Glo luminescent dose response of DLD-1 viability loss (AID 1117352); assay type: functional
[11] = HCT116 cell viability decrease, GSK3B pretreatment – CellTiter-Glo, IC50, dose response (AID 1117339); assay type: functional; details: HCT-116
Paired box protein Pax-8 = Paired box protein Pax-8 (Homo sapiens, UniProt Q06710); assay: inhibitors of PAX8-driven TPO luciferase reporter, dose response, RMG-I cells, cherry-pick (AID 687027); assay type: functional, cell-based;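 also: luciferase reporter driven by Pax8 target thyroperoxidase promoter measured by SteadyGlo luminescence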
Sequence of Paired box protein Pax-8 (Q06710 whole entry): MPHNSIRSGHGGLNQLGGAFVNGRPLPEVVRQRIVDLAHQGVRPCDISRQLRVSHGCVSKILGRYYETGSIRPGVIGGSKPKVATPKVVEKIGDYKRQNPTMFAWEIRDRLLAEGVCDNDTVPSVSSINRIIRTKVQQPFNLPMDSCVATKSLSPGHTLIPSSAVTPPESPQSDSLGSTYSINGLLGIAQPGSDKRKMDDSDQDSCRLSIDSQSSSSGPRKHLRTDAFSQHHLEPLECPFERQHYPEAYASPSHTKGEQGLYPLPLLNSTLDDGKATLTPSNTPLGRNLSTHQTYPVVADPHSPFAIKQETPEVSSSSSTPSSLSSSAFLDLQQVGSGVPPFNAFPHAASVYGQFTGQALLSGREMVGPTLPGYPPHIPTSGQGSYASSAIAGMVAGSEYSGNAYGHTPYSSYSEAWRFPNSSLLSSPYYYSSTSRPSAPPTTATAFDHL

[12] = NIH:OVCAR-3 ovarian cancer cell cytotoxicity, dose response, PAX8 inhibitor project, plate reader, dry powder samples (AID 743044); assay type: functional, cell-based
[13] = IGROV1 ovarian cancer cell cytotoxicity, dose response, PAX8 inhibitor project, plate reader, dry powder samples (AID 743043); assay type: functional, cell-based; details: IGROV-1
[14] = cytotoxicity in OVCAR8 ovarian cancer cells, dose response, PAX8 project, cell-based, plate reader, dry powder samples (AID 743197); assay type: functional; details: OVCAR-8
[15] = Late-stage results from the probe development effort to identify antagonists of arginine vasopressin receptor 1a (AVPR1a): fluorescence-based cell-based dose response AVPR1a inhibition assay.; assay type: functional
Vasopressin V1b receptor = Vasopressin V1b receptor (Homo sapiens, UniProt P47901); assay: Late-stage results from the probe development effort to identify antagonists of arginine vasopressin receptor 1a (AVPR1a): fluorescence-based cell-based dose response AVPR1b inhibition counterscreen assay.; assay type: functional
Sequence of Vasopressin V1b receptor (P47901 whole entry): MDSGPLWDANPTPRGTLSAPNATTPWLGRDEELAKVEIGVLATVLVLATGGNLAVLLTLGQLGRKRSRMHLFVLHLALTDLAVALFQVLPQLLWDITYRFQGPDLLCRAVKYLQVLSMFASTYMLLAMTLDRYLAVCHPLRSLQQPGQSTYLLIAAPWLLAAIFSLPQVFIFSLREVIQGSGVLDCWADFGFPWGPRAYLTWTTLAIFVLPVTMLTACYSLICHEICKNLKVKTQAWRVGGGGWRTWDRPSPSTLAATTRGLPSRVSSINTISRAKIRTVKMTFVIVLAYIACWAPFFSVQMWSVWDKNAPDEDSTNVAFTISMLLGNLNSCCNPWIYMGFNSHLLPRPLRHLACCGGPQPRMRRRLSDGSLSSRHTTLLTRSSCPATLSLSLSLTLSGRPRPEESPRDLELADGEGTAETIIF

Vasopressin V2 receptor = Vasopressin V2 receptor (Homo sapiens, UniProt P30518); assay: Late-stage results from the probe development effort to identify antagonists of arginine vasopressin receptor 1a (AVPR1a): fluorescence-based cell-based dose response AVPR2 inhibition counterscreen assay.; assay type: functional
Sequence of Vasopressin V2 receptor (P30518 whole entry): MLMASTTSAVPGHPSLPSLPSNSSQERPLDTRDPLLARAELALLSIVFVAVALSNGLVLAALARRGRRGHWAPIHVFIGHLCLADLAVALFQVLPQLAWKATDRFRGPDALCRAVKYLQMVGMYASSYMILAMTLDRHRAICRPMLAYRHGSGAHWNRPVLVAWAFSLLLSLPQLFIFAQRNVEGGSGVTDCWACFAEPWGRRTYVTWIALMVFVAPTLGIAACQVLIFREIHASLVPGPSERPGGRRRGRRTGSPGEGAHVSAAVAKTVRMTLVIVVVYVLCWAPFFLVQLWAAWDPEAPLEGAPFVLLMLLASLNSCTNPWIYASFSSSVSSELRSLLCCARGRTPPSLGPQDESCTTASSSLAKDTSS

[16] = Late-stage results from the probe development effort to identify antagonists of arginine vasopressin receptor 1a (AVPR1a): fluorescence-based cell-based dose response OXTR inhibition counterscreen assay.; assay type: functional
[17] = P. falciparum Dd2 growth inhibitors, dose response, SYBR Green, dry powder samples, set 9 (AID 1159568); assay type: functional, cell-based
[18] = Dose-response inhibition of insulin secretion in a rat insulinoma line at 5 mM glucose (AID 1117331); assay type: functional, cell-based; details: INS-1E
Cytochrome P450 1A2 = molecular target: T4, Cytochrome P450 1A2 (Homo sapiens, UniProt P05177);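 also: PubChem cytochrome P450 panel assay, CYP1A2 panel member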
T4 sequence (P05177 whole entry): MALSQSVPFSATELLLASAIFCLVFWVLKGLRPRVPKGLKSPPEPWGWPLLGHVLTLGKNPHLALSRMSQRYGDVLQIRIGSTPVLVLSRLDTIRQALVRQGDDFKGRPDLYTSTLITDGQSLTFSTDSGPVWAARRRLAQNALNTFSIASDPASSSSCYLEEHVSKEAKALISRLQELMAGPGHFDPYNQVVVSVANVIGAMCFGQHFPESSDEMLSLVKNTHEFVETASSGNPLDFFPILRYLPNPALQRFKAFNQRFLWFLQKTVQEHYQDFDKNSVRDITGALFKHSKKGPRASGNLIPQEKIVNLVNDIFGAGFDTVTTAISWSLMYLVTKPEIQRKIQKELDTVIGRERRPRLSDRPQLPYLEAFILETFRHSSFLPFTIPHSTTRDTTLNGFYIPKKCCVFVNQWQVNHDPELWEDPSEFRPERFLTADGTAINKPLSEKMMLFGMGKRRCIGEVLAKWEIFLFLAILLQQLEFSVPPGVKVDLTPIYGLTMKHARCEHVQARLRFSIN

Compound: Cc1ccc(C)c(NC(=O)C(Sc2nnc(-c3cccs3)o2)c2ccccc2)c1 (stereo not given)
- EC50 [1]: 25 µM (not active)

Compound: COC(=O)c1ccc(CSc2nc3ccccc3c(=O)n2-c2ccc(OC)c(OC)c2)o1
- EC50 [2]: > 50 µM (active)
- IC50 [3]: > 100 µM (active)

Compound: Cc1cccc(Nc2nnc(SC3CCOC3=O)s2)c1C (stereo not given)
- IC50 (Leucine aminopeptidase): 2.23 µM (active)
- IC50 (Aspartyl aminopeptidase): > 73.5 µM (not active)
- IC50 (Procathepsin L): > 59.6 µM (not active)

Compound: CCOc1ccc(Nc2nc3ccccc3n3nnnc23)cc1
- IC50 (Protein Tat): > 100 µM (active)
- IC50 [3]: > 100 µM (active)

Compound: N=C(NN=Cc1ccc(Cl)cc1)NN=Cc1ccc(Cl)cc1
- IC50 [4]: 0.225 µM (active)
- IC50 [5]: 0.47 µM (active)
- IC50 [6]: 0.394 µM (active)
- IC50 [7]: 0.28 µM (active)
- IC50 [8]: 0.458 µM (active)
- IC50 [9]: 0.681 µM (active)
- IC50 [10]: 0.654 µM (active)
- IC50 [11]: 0.344 µM (active)

Compound: Cc1ccc(S(=O)(=O)N(C)C[C@H]2OCCCC[C@H](C)Oc3ccc(NS(=O)(=O)c4ccc(F)cc4)cc3C(=O)N([C@H](C)CO)C[C@@H]2C)cc1
- AC50 (Paired box protein Pax-8): 3.32 µM (active)
- AC50 [12]: 29.3 µM (active)
- AC50 [13]: 67.9 µM (active)
- AC50 [14]: > 70 µM (inactive)

Compound: Cc1ccnc(N2CCC(C(=O)N(CC3CC3)c3ccc(Cl)cc3)CC2)c1
- IC50 [15]: 0.0052 µM (active)
- IC50 (Vasopressin V1b receptor): 18.2 µM (inactive)
- IC50 (Vasopressin V2 receptor): 13.6 µM (inactive)
- IC50 [16]: 9.1 µM (active)

Compound: CN1c2ccc(C#Cc3cccnc3)cc2[C@@H]2[C@@H](CCN2C(=O)c2cccc(F)c2)[C@@H]1CO
- AC50 [17]: 4.46 µM (active)

Compound: O=C1NCN(c2ccccc2)C12CCN(CCCOc1ccc(F)cc1)CC2 [SPIRAMIDE]
- IC50 [4]: 4.61 µM (active)
- IC50 [18]: > 33.3 µM (inactive)
- IC50 [5]: 5.31 µM (inactive)
- IC50 [6]: 8.82 µM (inactive)
- IC50 [7]: 0.242 µM (active)
- IC50 [8]: 11.8 µM (inactive)
- IC50 [9]: 2.46 µM (active)
- IC50 [10]: 0.882 µM (active)
- IC50 [11]: 5.33 µM (inactive)
- AC50 (Cytochrome P450 1A2): 39.8 µM (inconclusive)
